Paper PMC4050370 (Nature structural & molecular biology, 2014)

Target: LeuT (leucine transporter) (Aquifex aeolicus, UniProt O67854)
Experiment: [3H]-Ala uptake in proteoliposomes
Type: biochemical
Conditions: Na+-dependent; 50 mM NaCl, 50 mM Tris-Mes pH 8.5, 22 °C; labelled compound

Question: Which “[3H]-Ala uptake in proteoliposomes” value does the source give for `C[C@H](N)C(=O)O` [alanine] here?
Answer: we measured Na^+-dependent alanine uptake in proteoliposomes for a large subset of mutants
